Test results taken from patent US20240002474A1, “Systems and Methods for Diagnostic Assessment and Treatment of Insulin Resistance and Hyperglycemia” (The Board of Trustees of the Leland Stanford Junior …, priority 2020, published 2024).

Experiments:
[1] = system: HepaRG hepatocytes; assay: Mitochondrial insulin stimulation test (MIST), oxygen consumption rate in HepaRG hepatocytes; format: cell-based, human; conditions: for insulin-dependent mitochondrial respiration / maximal respiration (FCCP uncoupling): HepaRG, 10-minute pretreatment with peptide (10 μM) before exposure to IR or T2D patient serum, vs cells without peptide
Protocol: Mitochondrial Insulin Stimulation Test. HepaRG hepatocytes or skeletal muscle cells were plated at 40,000 cells/well in Seahorse XF96 plate (Agilent) the day before the assay. Cells were serum starved by culturing in respective media without serum or growth factor supplements. Individual serum was diluted 1:100 in supplement-free media and cells were incubated with media containing individual serum for 4 hours. Cells were washed three times with PBS and incubated with seahorse assay media (buffer free RPMI with mM glucose, mM sodium pyruvate and mM glutamine) for 1 hour in a CO2 free incubation at 37° C. Seahorse measurements were performed every 5 minutes with mixing. Mitochondrial function was perturbed by administration of insulin (100 nM), oligomycin (1 μM), FCCP (2 μM), and rotenone and antimycin A (1 μM). Data was processed by normalizing basal respiration to zero and the maximal respiration following FCCP administration of the positive control (no serum exposure with insulin stimulation) to 1.
IgG purification and fragmentation. IgG purified from serum was diluted (1:100) in Protein G binding buffer (Thermo) and incubated with Protein G Agarose Beads (Thermo) for 4 hours on an orbital shaker at 4° C. Beads were washed three times with Protein G binding buffer and IgG was eluted by incubated beads in Protein G elution buffer, pH 2.7 for 5 minutes, centrifuged and the supernatant was quenched with Tris-HCl buffer, pH 9.0. Purified IgG was buffer exchanged to using 15 kDa spin column to PBS. Purification was validated by immunoblotting. Fab fragments were generated by papain cleavage using Pierce […] (Thermo Scientific) according to manufacturer's protocol.
Peptide Synthesis. SYN746 (QRFCTGHFGGLYPCHGP; SEQ ID NO: 1) and HIV TAT conjugated FcRn C-terminal tail-dominant negative ([…]; SEQ ID Nos: 2 and 3) were synthesized using Fmoc solid phase peptide synthesis and purified using preparative HPLC using aC18 reverse-phase column and characterized by liquid-chromatography mass spectrometry by University of Minnesota Peptide Synthesis Core.

[2] = target: FcRn (Homo sapiens, UniProt P55899); conditions: previously published peptide; similar to IgG; cited from earlier work
Chain of FcRn (P55899 24-297 limits assumed): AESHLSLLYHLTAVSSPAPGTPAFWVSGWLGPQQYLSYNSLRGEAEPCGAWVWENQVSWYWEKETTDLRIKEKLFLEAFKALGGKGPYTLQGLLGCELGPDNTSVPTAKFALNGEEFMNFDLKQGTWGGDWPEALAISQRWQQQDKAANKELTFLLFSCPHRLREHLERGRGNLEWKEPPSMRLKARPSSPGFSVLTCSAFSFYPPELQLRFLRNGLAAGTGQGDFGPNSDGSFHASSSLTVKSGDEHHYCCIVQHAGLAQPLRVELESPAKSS
Chain of FcRn (P61769 21-119 partner): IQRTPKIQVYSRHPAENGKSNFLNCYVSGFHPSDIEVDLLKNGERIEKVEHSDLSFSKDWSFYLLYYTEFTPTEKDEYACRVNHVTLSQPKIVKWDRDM

**Q.** For “YGRKKRRQRRRGAPWISLRGDDTGVLLPTP [dominant negative]”, which insulin-dependent mitochondrial respiration [1] is on record?
**A.** Its insulin-dependent mitochondrial respiration is “significant rescue”.

**Q.** And the “maximal respiration (FCCP uncoupling)” value [1]?
**A.** Its value is “significant rescue”.

**Q.** With “QRFCTGHFGGLYPCHGP (listed as Homo sapiens) [SYN746]” as the sequence, how does the “binding to FcRn” value [2] read?
**A.** The value was “pH-sensitive binding”.

**Q.** What about the “mitochondrial function or insulin stimulation in control cells” value ([1]; HepaRG control cells, 10-minute pretreatment) of the same sequence?
**A.** The value was “did not affect”.

**Q.** And the insulin-dependent mitochondrial respiration [1]?
**A.** Its insulin-dependent mitochondrial respiration is “dramatic rescue”.

**Q.** And the “maximal respiration (FCCP uncoupling)” value [1]?
**A.** Its value is “dramatic rescue”.
